In patent publication US11571485B2, “Peptides and antibodies for detecting changes in alzheimer's disease brain and methods of use thereof” (Sanford Burnham Prebys Medical Discovery Institute, priority 2016, dated 2023):
Entries after “also recorded” stand apart in the source; their conditions may differ.

Columns and labels:
AD hippocampus = test: Homing of intravenously injected individual peptide-displaying phages; assay type: in vivo, mouse; settings: intravenously injected phage displaying the peptide
From the text: FIG. 1B relates to phage titration showing that about 5 times more phage were recovered from the AD hippocampus than from the normal control. In the sequencing, phages displaying the peptides code named CASP (SEQ ID NO: 3; CASPRLSKC), CES (SEQ ID NO: 11, CESPLLSEC), and DAG (SEQ ID NO: 102, CDAGRKQKC) dominated. Hippocampus from age-matched normal wild-type mouse brain was used as a control.

[1] = system: hAPP-J20 mouse brain sections; test: Tissue section overlay of FAM-labeled peptides on mouse brain sections; assay type: binding; settings: hAPP-J20 vs age-matched wild-type mice, hippocampal region
Description: PFA fixed sections were incubated in PBS for 10 minutes, followed by PBS-Triton-x-100 (0.2%) for 10 minutes. Sections were rinsed with PBST, mounted in a slide holder, and subsequently washed with PBS-T during 12 minutes. Slides were blocked with blocking buffer for 60 minutes at room temperature. Then, peptides were incubated at a concentration of 10 μg/mL dissolved in concentrated blocking buffer, for three hours at room temperature. Sections were then washed with three 4-minute washes of PBS-T, and subsequently fixed with PFA for 10 minutes, followed by three 3-minute washes with PBS-T. Sections were then incubated with primary antibody at 1/200 in diluted blocking buffer overnight at 4° C. Later, sections were washed with three 4-minute washes with PBS-T. Slides were then incubated with secondary antibody at 1/200 dilution in diluted blocking buffer for 30 minutes at room temperature, followed by three 4-minute washes of PBS-T. Sections were then counterstained with DAPI for 5 minutes, washed with PBS-T and mounted.

recombinant human CTGF = target: T1, recombinant human CTGF (Homo sapiens, UniProt P29279); test: ELISA binding to recombinant CTGF
T1 construct: purchased Affymetrix 14-8503-80
T1 sequence (P29279 253-349 limits assumed): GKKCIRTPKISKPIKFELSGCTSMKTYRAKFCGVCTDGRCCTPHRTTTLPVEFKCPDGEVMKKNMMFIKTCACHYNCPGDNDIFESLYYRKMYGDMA
Description: FIG. 10 is a graphical representation relating to identification of a receptor for DAG. DAG binds to recombinant CTGF. FAM-DAG was incubated on ELISA plate coated with recombinant human CTGF at two different peptide concentrations of the FAM peptide alone (light gray bars), or in the presence of non-labeled DAG (0.5 mM) (dark gray bars). […] DAG was also shown to colocalize with CTGF. FAM-DAG was intravenously injected in 9-month-old hAPP-J20 and WT mice, allowed to circulate for 30 minutes, after which mice were perfused, and the brains were fixed, sectioned and stained for FAM (green) and CTGF (red).
Human CTGF recombinant protein (Affymetrix Cat #14-8503-80) was incubated on Nunc low-binding plates at concentration of 10 μg/ml for overnight at 4° C. Excess protein in the plates was removed by washing with PBS-T (PBS with 0.005% Tween 20). Plates were blocked with 200 μl of 3% non-fat milk in PBS for 1 hour at room temperature and washed with PBS-T once. Biotin-labeled peptide (at different concentrations) in PBS was added to the plate for 2 hours at 37° C. For peptide inhibition, non-labeled DAG peptide (0.5 mM) was added 30 minutes prior to addition of labeled peptide. The plates were washed with 100 μl PBS-T for three times to remove excess peptide. The bound peptide was detected by incubating with 100 μl of Vectastain ABC™ reagent (Vector labs, Burlingame, Calif.) for 30 minutes. The plate was washed with 100 μl PBS-T three times. Next, 100 μl of o-phenylenediamine dihydrochloride (OPD) silver and gold substrate (Sigma-Aldrich) was added to the wells and incubated at room temperature until visible color was observed (˜30 min). Adding 50 μl of 1 M H2SO4 stopped the reaction and the plate was read at 495 nm (FlexStation™ 3 Reader, Molecular Devices, Sunnyvale, Calif., USA).

[2] = system: acute penetrating brain injury; test: In vivo homing in acute penetrating brain injury model; design: species or system mouse; settings: injected 6 hours after injury
Description: All animal experiments were conducted under an approved protocol of the Institutional Animal Care and Use Committee of Sanford Burnham Prebys Medical Discovery Institute. The following transgenic mouse models were used for peptide homing studies—hAPP-J20 ([…], Nature genetics 1, 345-347 (1992)), Tg2576 (Jacobsen et al., Proc Natl Acad Sci USA 103, 5161-5166 (2006)), and mTHY-1-α-synuclein model (Chesselet et al., Neurotherapeutics 9, 297-314 (2012)). The P13 glioblastoma model is a patient-derived orthotopic xenograft model (Bougnaud et al., Oncotarget, (2016)). Spheroids were cultured as described previously (Bjerkvig et al., J Neurosurg 72, 463-475 (1990)). After two weeks in culture, spheroids (volume 2.5 μl) were stereotactically implanted into the brains of nude mice. Mice were used approximately 6 weeks after tumors were induced, when mice started presenting neurological symptoms. The acute brain injury model was setup as previously described (Mann et al., Nature communications 7, 11980 (2016)). Briefly, 8 to 10 week-old male BL6 mice were anaesthetized with 4% isoflurane in 70% N2O and 30% O2, and a 5-mm craniotomy was performed using a portable drill and a trephine over the right parietotemporal cortex using a stereotactic frame. […]

[3] = system: hAPP-J20 mouse brain (hippocampus)
Description: The synthetic peptides were labeled with FAM and 100 nmol and were intravenously injected to 9-month old AD mice through the tail vein. The peptides were allowed to circulate for 30 min, after which the mice were perfused with 20 ml of PBS, the brains were collected and snap-frozen in OCT for sectioning. The peptides were detected by anti-FAM staining (green), nuclei were stained with DAPI (blue), and anti-CD31 was used to visualize blood vessels.
For peptide homing, mice were intravenously injected with 50 nmole peptide dissolved in PBS, and allowed to circulate for 30 min. Mice were then perfused intracardially with saline and all major organs were isolated and fixed in 4% paraformaldehyde (PFA) at pH 7.4 overnight. The organs were then washed with PBS and placed in graded sucrose solutions overnight before optimal cutting temperature compound (OCT) embedding. Ten-micro-meter-thick sections were cut and analyzed by immunostaining.
Frozen sections were permeabilized using PBS- 0.2% Triton™ X-100 (PBST), blocking was carried out using blocking buffer (5% BSA, 1% goat serum, 1% donkey serum in PBST. Primary antibodies were incubated in diluted (1%) blocking buffer overnight at dilutions 1/100 or 1/200 at 4° C., washed with PBST and incubated with secondary antibodies diluted 1/200 or 1/500 in 1% diluted buffer for 1 hour at room temperature, subsequently washed with PBST, counterstained with DAPI 1 μg/mL in PBS for 5 minutes, washed with PBS, mounted using aqueous mounting media (Vector Biolabs), and imaged using a confocal microscope (Zeiss LSM-710).

CDAGRKQKC
Phage accumulation in normal brain (AD hippocampus): no accumulation in normal brain
Phage homing to AD hippocampus (AD hippocampus): home to AD hippocampus with high specificity
Ex vivo peptide binding to brain sections [1]: bound to a much greater degree in the hippocampal region of hAPP-J20 mice than to age-matched wild-type mice; also recorded: far stronger than DAG binding to WT brain
Binding to CTGF-coated plates (recombinant human CTGF; ELISA): bound to CTGF-coated plates in a dose-dependent manner
Inhibition of CTGF binding by unlabeled DAG (recombinant human CTGF; non-labeled DAG 0.5 mM): inhibited in the presence of an excess of unlabeled DAG
Homing to brain injury [2]: robustly homed to the perilesional area containing activated hypertrophic astrocytes
Homing in early-stage AD ([3]; 3-4 month old hAPP-J20 mice, i.v., 30 min): Robust DAG homing in young hAPP-J20 animals was observed, mostly in the cerebrocortex and the hippocampus
Cellular localization in brain ([3]; DAG-injected hAPP-J20 mice, anti-GFAP and anti-Aβ staining): accumulated within a subpopulation of GFAP-positive hypertrophic astrocytes surrounding the Aβ plaques
Accumulation in other organs ([3]; mouse, in vivo, iv): little if any accumulation of the peptide in other organs of the hAPP-J20 mouse except for kidney
